Results reported in patent publication EP0117429A1, “Phosphorous containing compounds as inhibitors of enkephalinases” (SCHERING CORPORATION, priority 1983, dated 1984).
Where a name gives a salt, the structure may show the parent alone.

How the values were obtained:
enkephalinase A = biological target: T1, enkephalinase A (Rattus norvegicus, UniProt P07861); experiment: Enkephalinase A inhibition, radiometric assay with 3H-Met5-ENK substrate and TLC separation; assay type: biochemical, Sprague-Dawley rats; conditions: enkephalinase A fraction from rat brain membranes; substrate 3H-Met5-ENK 40 nM; 90 minutes at 37°C; pH 7.4
T1 construct: from tissue; host or cells: rat brain (minus cerebellum), Triton X-100 solubilised membranes, DEAE Sephacel fraction
T1 sequence (P07861 1-750): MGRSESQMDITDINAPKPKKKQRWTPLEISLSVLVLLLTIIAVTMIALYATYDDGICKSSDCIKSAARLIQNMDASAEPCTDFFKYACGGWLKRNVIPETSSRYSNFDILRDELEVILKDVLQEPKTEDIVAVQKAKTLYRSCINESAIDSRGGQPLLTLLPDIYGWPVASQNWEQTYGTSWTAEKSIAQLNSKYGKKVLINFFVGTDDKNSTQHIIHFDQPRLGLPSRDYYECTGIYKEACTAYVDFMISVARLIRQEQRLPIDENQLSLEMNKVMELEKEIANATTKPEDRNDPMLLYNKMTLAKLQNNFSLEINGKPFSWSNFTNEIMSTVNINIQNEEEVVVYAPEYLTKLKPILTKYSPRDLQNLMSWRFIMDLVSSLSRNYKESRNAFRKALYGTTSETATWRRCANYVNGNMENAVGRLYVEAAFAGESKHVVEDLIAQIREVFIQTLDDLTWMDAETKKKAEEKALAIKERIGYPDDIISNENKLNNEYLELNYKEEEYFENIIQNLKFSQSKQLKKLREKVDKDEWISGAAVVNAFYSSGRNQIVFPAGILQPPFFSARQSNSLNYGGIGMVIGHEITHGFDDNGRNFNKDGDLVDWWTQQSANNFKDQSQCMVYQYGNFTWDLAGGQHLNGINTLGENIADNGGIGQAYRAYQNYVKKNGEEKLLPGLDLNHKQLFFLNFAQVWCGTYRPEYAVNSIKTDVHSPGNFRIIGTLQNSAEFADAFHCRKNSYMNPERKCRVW
Protocol: Enzyme activity was separated by taking the brain tissue (minus cerebellum) from Sprague-Dawley rats and homogenizing it in 30 volumes of 50 mM Tris buffer, pH 7.4, using a Brinkmann Polytron. The resulting homogenate is centrifuged at 50,000 x g for 15 minutes. The pellet, constituting the membrane bound enzyme material, was washed by resuspending it in Tris and re- centrifuging it 4 times.
Following washing, solubilization of the membrane pellet was achieved by incubating it for 45 minutes at 37 °C in the presence of 15 volumes (based on initial brain weight) of 50 mM Tris-l% Triton X-100 buffer, pH 7.4. After centrifugation at 100,000 x g for 60 minutes to remove non-solubilized material, the Triton soluble supernatant was layered on a 1.5 x 30 cm DEAE Sephacel column previously equilibrated with.50 mM Tris-0.1% Triton, pH 7.4. Material was eluted from the column using a 1 liter linear NaCl gradient running from 0.0 to 0.4 M. Effluent was collected in 7 ml fractions, each of which was assayed for enkephalin degrading activity.
Enkephalin degrading activity was monitored using a radiometric assay. The substrate was ^3H-Met5-ENK (50.1 Ci/mmol, New England Nuclear) diluted in 0.05 M Tris buffer, pH 7.4, such that the final reaction mixture concentration was 40 nM. Total reaction mixture volume including enzyme and substrate was 250 µl. Incubation was carried out for 90 minutes at 37°C. To stop the reaction, tubes were transferred to a boiling water bath for 15 minutes.
Assay products were separated form one another using thin layer chromatography. […] Total running time was approximately 17 hours. TLC tanks are gassed with nitrogen prior to starting the run. Following the run, markers are visualized with ninhydrin spray. These spots, along with remaining plate regions, are cut from the plate and the radioactivity corresponding to each monitored using liquid scintillation counting. IC50's are determined using linear regression techniques.

Male CF1 mice = experiment: Potentiation of the analgesic effects of DAEAM, mouse tailflick test; assay type: in vivo; conditions: dose at which half the test animals displayed analgesia, DAEAM icv, tailflick latency 30 minutes after DAEAM, cut-off 10 seconds
Protocol: The following test procedure was utilized to assess the noted compounds' potentiation of the analgesic effects of (D-Ala^2-Met^5)-enkephalinamide (DAEAM).
Male CF1 mice (19-23 g) from Charles River Breeding Labs, Mass., were used (N=10/dose or dose combination). […] Tailflick latencies were re-determined 30 minutes later, as this has previously been determined to be the time of peak analgesia for DAEAM, and a cut-off of 10 seconds is employed.

| IC50 (enkephalinase A) [µM] | Molecule | Oral ED50, in mice (Male CF1 mice) [mg/kg] |
| --- | --- | --- |
| 0.06 | CCOC(=O)CCNC(=O)[C@H](Cc1ccccc1)CP(=O)(O)O [S, -H, -CONH-, -(CH2)2-, -OC2H5, N-[(S)=1-Oxo-3-phenyl-2-(phostphonomethyl)propyl] -β-alanine ethyl ester calcium salt] | 2.5 |
| 0.0013 | O=C(O)CCNC(=O)C(Cc1ccc(-c2ccccc2)cc1)CP(=O)(O)O (racemic) [R,S, -C6H5, -CONH-, -(CH2)2-, -OH, N-[(R,S)-3-(1,1'-Biphenyl-4-yl)-1-oxo-2-(phosphonomethyl)-propyl]-β-alanine] |  |
| 0.08 | O=C(O)CCCNC(=O)C(Cc1ccccc1)CP(=O)(O)O (centres unmarked) [S, -H, -CONH-, -(CH2)3-, -OH, 4-[1-oxo-3-phenyl-2-(phosphonomethyl)propyl]amino-butanoic acid] |  |
| 0.06 | O=C(O)CCNC(=O)C(Cc1ccc(C(F)(F)F)cc1)CP(=O)(O)O (racemic) [R,S, -CF3, -CONH-, -(CH2)2-, -OH, N-[1-Oxo-2-phosphonomethyl-3-(4-trifluoromethyl)phenylpropyl]-β-alanine] |  |
| 0.6 | O=C(O)CCNC(=O)[C@@H](Cc1ccccc1)CP(=O)(O)O [R, -H, -CONH-, -(CH2)2-, -OH, N-[(R)-1-oxo-3-phenyl-2-)phosphonomethyl)propyl] -(β-alanine calcium salt] |  |
| 0.011 | O=C(O)CCNC(=O)[C@H](Cc1ccc(Cl)cc1)CP(=O)(O)O [S, -Cl, -CONH-, -(CH2)2-, -OH, N-[3-(a-chloro)phenyl-1-oxo-2-(phosphonomethyl)propyl]-B-alanine] | 25 |
| 0.063 | CCOC(=O)c1ccc(NC(=O)C(Cc2ccccc2)CP(=O)(O)O)cc1 (centres unmarked) [S, -H, -CONH-, p-C6H4-, -OC2H5, 4-[1-oxo-3-phenyl-2-(phosphonomethyl)propyl]aminobenzoic acid ethyl ester] |  |
| 0.025 | O=C(O)C(O)CNC(=O)C(Cc1ccccc1)CP(=O)(O)O (centres unmarked) [S, -H, -CONH-, -CH2C^***H(OH)-, -OH, 3-[1-Oxo-3-phenyl-2-(phosphonomethyl)propyl]amino-2-hydroxypropanoic Acid] |  |
| 0.1 | CC(OC(=O)NC(Cc1ccccc1)CP(=O)(O)O)C(=O)O [R,S, -H, -NHCOO-, -C^**H(CH3)-, -OH, 2-[2-phenyl-l-(phosphonomethyl)ethyl]aminocarbonyloxy-propanoic acid] |  |
| 0.21 | O=C(CCNC(=O)[C@H](Cc1ccccc1)CP(=O)(O)O)OCCOc1ccccc1 [S, -H, -CONH-, -(CH2)2-, -O(CH2)2OC6H5, N-[(S)-1-Oxo-3-phenyl-2-(phosphonomethyl)propyl)-β-alanine 2-phenoxyethyl ester] |  |
| 2.2 | CCOC(=O)CCNC(=O)C(Cc1ccc(C(F)(F)F)cc1)CP(=O)(O)O (racemic) [R,S, -CF3, -CONH-, -(CH2)2-, -OC2H5] |  |

| Molecule | IC50 (enkephalinase A) [µM] | Oral ED50, in mice (Male CF1 mice) [mg/kg] |
| --- | --- | --- |
| 3-[(S) -2- (Diethoxyphosphinyl) methyl -1-oxo-3 -nhenyl- propyl]amino-2-(R,S)-methylpropanoic acid calcium salt [S, -H, -CONH-, -CH2C^**H(CH3)-, -OH] | 0.0255 | 20 |
| N-L(S)-1-Oxo-3-phenyl-2-(phosphonomethyl)propyl]-β-alanine calcium salt [S, -H, -CONH-, -(CH2)2-, -OH] | 0.019 | 3 |
